Calls of active or inactive are those of the source. No cut-off for these calls is given here.
Assays:
[1] = tested on: Aspergillus terreus; experiment: Antifungal activity against Aspergillus terreus by microdilution test; assay type: functional
[2] = tested on: Aspergillus flavus; experiment: Antifungal activity against Aspergillus flavus by microdilution test; assay type: functional
[3] = Antifungal activity against Exophiala oligosperma by microdilution test; assay type: functional
[4] = tested on: Meyerozyma guilliermondii; experiment: Antifungal activity against Candida guilliermondii by microdilution test; assay type: functional
[5] = tested on: Pichia kudriavzevii; experiment: Antifungal activity against Candida krusei by diffusion test; assay type: functional, organism-based
[6] = Antifungal activity against Cladophialophora carrionii by diffusion test; assay type: functional
[7] = Antifungal activity against Exophiala xenobiotica by diffusion test; assay type: functional
[8] = tested on: Nakaseomyces glabratus; experiment: Antifungal activity against Candida glabrata by diffusion test; assay type: functional, organism-based
[9] = tested on: Candida albicans; experiment: Antifungal activity against Candida albicans by microdilution test; assay type: functional
[10] = tested on: Candida parapsilosis; experiment: Antifungal activity against Candida parapsilosis by microdilution test; assay type: functional
[11] = Antifungal activity against Exophiala xenobiotica by microdilution test; assay type: functional
[12] = Antifungal activity against Exophiala oligosperma by diffusion test; assay type: functional
[13] = tested on: Aspergillus nidulans; experiment: Antifungal activity against Aspergillus nidulans by diffusion test; assay type: functional, organism-based
[14] = Antifungal activity against Cladophialophora carrionii by microdilution test; assay type: functional
[15] = tested on: Exophiala spinifera; experiment: Antifungal activity against Exophiala spinifera by microdilution test; assay type: functional
[16] = tested on: Exophiala spinifera; experiment: Antifungal activity against Exophiala spinifera by diffusion test; assay type: functional, organism-based
[17] = tested on: Candida parapsilosis; experiment: Antifungal activity against Candida parapsilosis by diffusion test; assay type: functional, organism-based
[18] = Antifungal activity against Aspergillus fumigates by diffusion test; assay type: functional
[19] = tested on: Aspergillus nidulans; experiment: Antifungal activity against Aspergillus nidulans by microdilution test; assay type: functional, organism-based
[20] = tested on: Candida albicans; experiment: Antifungal activity against Candida albicans by diffusion test; assay type: functional, organism-based
[21] = tested on: Aspergillus terreus; experiment: Antifungal activity against Aspergillus terreus by diffusion test; assay type: functional, organism-based
[22] = tested on: Aspergillus niger; experiment: Antifungal activity against Aspergillus niger by microdilution test; assay type: functional
[23] = Antifungal activity against Aspergillus fumigates by microdilution test; assay type: functional
[24] = tested on: Cryptococcus neoformans; experiment: Antifungal activity against Cryptococcus neoformans by microdilution test; assay type: functional
[25] = tested on: Nakaseomyces glabratus; experiment: Antifungal activity against Candida glabrata by microdilution test; assay type: functional
[26] = tested on: Aspergillus flavus; experiment: Antifungal activity against Aspergillus flavus by diffusion test; assay type: functional, organism-based
[27] = tested on: Pichia kudriavzevii; experiment: Antifungal activity against Candida krusei by microdilution test; assay type: functional
[28] = tested on: Meyerozyma guilliermondii; experiment: Antifungal activity against Candida guilliermondii by diffusion test; assay type: functional, organism-based
[29] = tested on: Aspergillus niger; experiment: Antifungal activity against Aspergillus niger by diffusion test; assay type: functional, organism-based
[30] = tested on: Cryptococcus neoformans; experiment: Antifungal activity against Cryptococcus neoformans by diffusion test; assay type: functional, organism-based

Structure (SMILES): CN(C)S(=O)(=O)c1ccc2c(c1)Nc1ccccc1S2
- Activity [1]: inactive
- Activity [2]: inactive
- Activity [3]: inactive
- Activity [4]: inactive
- Activity [5]: Active
- Activity [6]: Active
- Activity [7]: Active
- Activity [8]: Active
- Activity [9]: inactive
- Activity [10]: inactive
- Activity [11]: inactive
- Activity [12]: Active
- Activity [13]: Active
- Activity [14]: inactive
- Activity [15]: inactive
- Activity [16]: Active
- Activity [17]: Active
- Activity [18]: Active
- Activity [19]: inactive
- Activity [20]: Active
- Activity [21]: Active
- Activity [22]: inactive
- Activity [23]: inactive
- Activity [24]: inactive
- Activity [25]: inactive
- Activity [26]: Active
- Activity [27]: inactive
- Activity [28]: Active
- Activity [29]: Active
- Activity [30]: Active
